Results as given in patent US12612412B2, “Antiviral heterocyclic compounds” (Enanta Pharmaceuticals, Inc., priority 2021, dated 2026).
Like-named read-outs stand apart in the source and are kept apart here.

What was measured:
[1] = system: genotype A, "Long" strain RSV; test: RSV-A assay (CPE protection in Hep-2 cells, ATPlite readout); type: cell-based, Human respiratory syncytial virus (HRSV); settings: human respiratory syncytial virus, MOI 0.1, CPE protection
Outline: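 Hep-2, 8,000 cells/well, MOI 0.1 (PFU- or TCID50-based); 2-fold compound series, duplicates; 5 d incubation; ATPlite luminescence readout; EC50.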

[2] = system: HMPV clinical isolate TN/1501/A1; test: HMPV antiviral assay Method-B (clinical isolate TN/1501/A1 in LLC-MK2 cells, ATP-Lite readout); type: cell-based, Human metapneumovirus (HMPV); settings: human metapneumovirus, LLC-MK2, 144 h, hMPV WT1501 (clinical isolate TN/1501/A1), 6 days
Outline: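 LLC-MK2 cells infected in suspension with TN/1501/A1 at MOI 0.014 in serum-free medium with 2 μg/mL TPCK-trypsin (final), incubated 6 days at 37° C. Compounds tested in duplicate, 10-point 3-fold dilutions from 10 μM. Cell health read by ATP-Lite luminescence, normalised to virus-only and cells-only controls; EC50 by four-parameter logistic fit.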

[3] = genotype A “Long” strain RSV, read-out: Human RSV-A (“Long”)
[4] = RSV-A Long strain, read-out: Human RSV-A (“Long”) EC50

| EC50 [1, 3] [nM] | EC50 [2] [nM] | EC50 [1, 4] [nM] | Structure (SMILES) |
| --- | --- | --- | --- |
| < 200 | < 500 | – | COc1cc(C(=O)NC[C@](O)(c2cc3c(c(-c4ccc(F)c(Cl)c4F)n2)OC[C@]3(C)C(N)=O)C2CC2)cc2cc(Br)cnc12 [Example 561] |
| < 200 | < 500 | – | Cc1cnc2c(OC(F)F)cc(C(=O)NC[C@](O)(c3cc4c(c(-c5ccc(F)c(Cl)c5)n3)OC[C@]4(C)C(N)=O)C(F)(F)F)cc2c1 [Example 494] |
| – | > 500 | < 200 | COc1cc(C(=O)NC[C@](O)(c2cc3c(c(-c4ccc(Cl)c(Cl)c4)n2)OC[C@]3(C)C(N)=O)C(F)(F)F)cc2cn(C3CC3)nc12 [Example 935] |
| < 200 | < 500 | – | COc1cc(C(=O)NC[C@](O)(c2cc3c(c(-c4csc5c(F)cccc45)n2)OC[C@]3(C)C(N)=O)C2CC2)cc2cc(Cl)c(C)nc12 [Example 595] |
| < 200 | < 500 | – | C[C@]1(C(N)=O)COc2c1cc([C@@](O)(CNC(=O)c1cc(OC3CC3)c3nc(C4CC4)cn3c1)C1CC1)nc2-c1ccc(F)c(Cl)c1F [Example 560] |
| – | < 500 | < 200 | COc1cc(C(=O)NC[C@](O)(c2cc3c(c(-c4cc(F)c(F)cc4F)n2)OC[C@]3(C)C(N)=O)C2CC2)cc2cn(C3(F)CC3)nc12 [Example 1147] |
| < 200 | < 500 | – | Cc1cnc2c(OC(F)F)cc(C(=O)NC[C@](O)(c3cc4c(c(-c5cc(Cl)ccc5F)n3)OC[C@]4(C)C(N)=O)C3(F)CC3)cc2c1 [Example 736] |
| < 200 | < 500 | – | COc1cc(C(=O)NC[C@](O)(c2cc3c(c(-c4cc(Cl)c(F)cc4F)n2)OC[C@]3(C)C(N)=O)C2CC2)cc2cn(C3CC3)nc12 [Example 661] |
| < 200 | < 500 | – | COc1cc(C(=O)NC[C@](O)(c2cc3c(c(-c4ccc(F)c(F)c4Cl)n2)OC[C@]3(C)C(N)=O)C2(F)CC2)cc2cn(C(F)F)nc12 [Example 748] |
| – | > 500 | > 200 | COc1cc(C(=O)NC[C@@](O)(c2cc3c(c(-c4c(F)cc(F)cc4Cl)n2)OC[C@]3(C)C(N)=O)C(F)(F)F)cc2cn(C3CC3)nc12 [Example 1234] |
| < 200 | > 500 | – | Cc1cnc2c(OC(F)(F)F)cc(C(=O)NC[C@](O)(c3cc4c(c(-c5ccc(F)cc5Cl)n3)OC[C@]4(C)C(N)=O)C(F)(F)F)cc2c1 [Example 519] |
| – | < 500 | < 200 | COc1cc(C(=O)NC[C@](O)(c2cc3c(c(-c4c(F)ccc(Cl)c4F)n2)OC[C@]3(C)C(N)=O)C2CC2)cc2cc(Br)c(C)nc12 [Example 1169] |
| < 200 | < 500 | – | COc1cc(C(=O)NC[C@](O)(c2cc3c(c(-c4ccc(F)c(Br)c4F)n2)OC[C@]3(C)C(N)=O)C2CC2)cc2cn(C3CC3)nc12 [Example 799] |
| < 200 | < 500 | – | COc1cc(C(=O)NC[C@](O)(c2cc3c(c(-c4ccc(F)c(Cl)c4F)n2)OC[C@]3(C)C(N)=O)C(F)(F)F)cc2cc(Cl)c(C)nc12 [Example 552] |
| – | < 500 | < 200 | COc1cc(C(=O)NC[C@](O)(c2cc3c(c(-c4ccc(F)c(Cl)c4F)n2)OC[C@]3(C)C(N)=O)C2CC2)cc2cc(C)c(Cl)nc12 [Example 1072] |
| < 200 | < 500 | – | Cc1cnc2c(OC(F)(F)F)cc(C(=O)NC[C@](O)(c3cc4c(c(-c5ccc(F)c(F)c5F)n3)OC[C@]4(C)C(N)=O)C(F)(F)F)cc2c1 [Example 515] |
| – | < 500 | < 200 | C[C@]1(C(N)=O)COc2c1cc([C@@](O)(CNC(=O)c1cc(Cl)c3nn(C4CC4)cc3c1)C1CC1)nc2-c1cc(F)c(Cl)cc1F [Example 1179] |
| < 200 | < 500 | – | COc1cc(C(=O)NC[C@](O)(c2cc3c(c(-c4cc(Cl)c(F)cc4F)n2)OC[C@]3(C)C(N)=O)C2CC2)cc2cc(Cl)c(C)nc12 [Example 666] |

Second part, the compound before the results:

| Structure (SMILES) | EC50 [1, 3] [nM] | EC50 [2] [nM] | EC50 [1, 4] [nM] |
| --- | --- | --- | --- |
| C#Cc1ccc(-c2nc([C@@](O)(CNC(=O)c3cc(OC)c4nn(C5CC5)cc4c3)C(F)(F)F)cc3c2OC[C@]3(C)C(N)=O)cc1 [Example 982] | – | > 500 | < 200 |
| COc1cc(-c2nc([C@@](O)(CNC(=O)c3cc(OC)c4nn(C5CC5)cc4c3)C(F)(F)F)cc3c2OC[C@]3(C)C(N)=O)ccc1Cl [Example 934] | – | > 500 | < 200 |
| COc1cc(C(=O)NC[C@](O)(c2cc3c(c(-c4ccc(OC(F)F)cc4)n2)OC[C@]3(C)C(N)=O)C(F)(F)F)cc2cn(C3CC3)nc12 [Example 926] | – | > 500 | < 200 |
| Cc1cnc2c(OC(F)F)cc(C(=O)NC[C@](O)(c3cc4c(c(-c5ccc(F)cc5)n3)OC[C@]4(C)C(N)=O)C(F)(F)F)cc2c1 [Example 493] | < 200 | < 500 | – |
| C[C@]1(C(N)=O)COc2c1cc([C@@](O)(CNC(=O)c1cc(OC3CC3)c3nn(C(F)F)cc3c1)C(F)(F)F)nc2-c1csc2c(F)cccc12 [Example 606] | < 200 | < 500 | – |
| C[C@]1(C(N)=O)COc2c1cc([C@@](O)(CNC(=O)c1cc(OC3CC3)c3nn(C(F)F)cc3c1)C(F)(F)F)nc2-c1ccc2c(c1)OC(F)(F)O2 [Example 569] | < 200 | < 500 | – |
| COc1cc(C(=O)NC[C@](O)(c2cc3c(c(-c4csc5c(F)cccc45)n2)OC[C@]3(C)C(N)=O)C(F)(F)F)cc2cn(C3CC3)nc12 [Example 936] | – | < 500 | < 200 |
| C[C@]1(C(N)=O)COc2c1cc([C@@](O)(CNC(=O)c1cc(O)c3nn(C4CC4)cc3c1)C(F)(F)F)nc2-c1ccc(F)cc1 [Example 590] | < 200 | > 500 | – |
| COc1cc(C(=O)NC[C@](O)(c2cc3c(c(-c4cc(Cl)c(F)cc4F)n2)OC[C@]3(C)C(N)=O)C(F)(F)F)cc2cn(C3(F)CC3)nc12 [Example 613] | < 200 | < 500 | – |
| COc1cc(C(=O)NC[C@](O)(c2cc3c(c(-c4ccc5c(c4)OCCO5)n2)OC[C@]3(C)C(N)=O)C(F)(F)F)cc2cn(C3CC3)nc12 [Example 973] | – | > 500 | > 200 |
| COc1cc(C(=O)NC[C@](O)(c2cc3c(c(-c4ccc5c(c4)OC(F)(F)O5)n2)OC[C@]3(C)C(N)=O)C2(F)CC2)cc2sc(C)nc12 [Example 727] | < 200 | < 500 | – |
| COc1cc(C(=O)NC[C@](O)(c2cc3c(c(-c4ccc5c(c4)OC(F)(F)O5)n2)OC[C@]3(C(N)=O)C(F)F)C2CC2)cc2cc(C3CC3)nn12 [Example 1012] | – | > 500 | > 200 |
| C[C@]1(C(N)=O)COc2c1cc([C@@](O)(CNC(=O)c1cc(OC3CC3)c3nn(C(F)F)cc3c1)C1CC1)nc2-c1ccc2c(c1)OC(F)(F)O2 [Example 847] | – | < 500 | < 200 |
| COc1cc(C(=O)NC[C@](O)(c2cc3c(c(-c4ccc5ncccc5c4)n2)OC[C@]3(C)C(N)=O)C(F)(F)F)cc2cn(C3CC3)nc12 [Example 966] | – | > 500 | > 200 |
| COc1cc(C(=O)NC[C@](O)(c2nc(-c3ccc4c(c3)OC(F)(F)O4)c3c(c2F)[C@@](C)(C(N)=O)CO3)C2CC2)cc2cn(C3(F)CC3)nc12 [Example 859] | – | < 500 | < 200 |
| COc1cc(C(=O)NC[C@](O)(c2cc3c(c(-c4cnc(C#N)c(Cl)c4)n2)OC[C@]3(C)C(N)=O)C(F)(F)F)cc2cn(C(F)F)nc12 [Example 582] | < 200 | > 500 | – |
| COc1cc(C(=O)NC[C@](O)(c2cc3c(c(-c4ccc(F)cc4)n2)OC[C@]3(C)C(N)=O)C(F)(F)F)cc2nn(C3CC3)cc12 [Example 874] | – | > 500 | > 200 |
| COc1ccc(C(=O)NC[C@](O)(c2cc3c(c(-c4ccc(F)cc4)n2)OC[C@]3(C)C(N)=O)C(F)(F)F)c2cc[nH]c12 [Example 693] | < 200 | > 500 | – |
| COc1cc(C(=O)NC[C@](O)(c2cc3c(c(-c4ccc5c(c4)OC(F)(F)O5)n2)OC[C@]3(C)C(N)=O)C(F)(F)F)cc2cc(C3CC3)nnc12 [Example 765] | < 200 | < 500 | – |
| C[C@]1(C(N)=O)COc2c1cc([C@@](O)(CNC(=O)c1cc(OC3CC3)n3nc(C4CC4)cc3c1)C(F)(F)F)nc2-c1ccc2c(c1)OC(F)(F)O2 [Example 504] | < 200 | < 500 | – |
| COc1cc(C(=O)NC[C@](O)(c2cc3c(c(-c4ccc5c(c4)OC(F)(F)O5)n2)OC[C@@]3(C(N)=O)C(F)F)C(F)(F)F)cc2cn(C3CC3)nc12 [Example 1035] | – | < 500 | < 200 |
| COc1cc(C(=O)NC[C@](O)(c2cc3c(c(-c4ccc5c(c4)OC(F)(F)O5)n2)OC[C@]3(C(N)=O)C(F)F)C(F)(F)F)cc2cc(Cl)c(C)nc12 [Example 1036] | – | > 500 | > 200 |
| Cc1cnc2c(Cl)cc(C(=O)NC[C@](O)(c3cc4c(c(-c5ccc(F)cc5Cl)n3)OC[C@]4(C)C(N)=O)C(F)(F)F)cc2c1 [Example 517] | < 200 | < 500 | – |
| COc1cc(C(=O)NC[C@](O)(c2cc3c(c(-c4cnc(C#N)c(Cl)c4)n2)OC[C@]3(C)C(N)=O)C(F)(F)F)cc2cn(C3CC3)nc12 [Example 583] | < 200 | > 500 | – |
| C[C@]1(C(N)=O)COc2c1cc([C@@](O)(CNC(=O)c1cc(Cl)c3nn(C4CC4)cc3c1)C1CC1)nc2-c1ccc2c(c1)OC(F)(F)O2 [Example 547] | < 200 | < 500 | – |
| COc1cc(C(=O)NC[C@](O)(c2nc(-c3ccc4c(c3)OC(F)(F)O4)c3c(c2F)[C@@](C)(C(N)=O)CO3)C2CC2)cc2cn(C3CC3)nc12 [Example 857] | – | < 500 | < 200 |
